# Results reported in patent US6933322B2, “Substituted naphthylenes for the treatment of non-insulin dependent diabetes mellitus” (Wyeth, priority 2002, dated 2005).
# What was measured:
# diabetic ob/ob mice [1] = assay: Hypoglycemic effect in diabetic ob/ob mice; type: in vivo, mouse
# Procedure: Hypoglycemic Effect in Diabetic OB/OB Mice
# Procedure: In each study, male or female ob/ob (C57 B1/6J) mice and their mean litermates (ob/+ or +/+, Jackson Laboratories) ages 2 to 5 months (10 to 65 g) were randomized according to plasma glucose into 4 groups of 10 mice. The mice were housed 5 per cage and were maintained on normal rodent chow with water ad libitum. Mice receive compound daily by gavage (suspended in 0.5 ml of 0.5% methyl cellulose); dissolved in the drinking water; or admixed in the diet. The dose of compounds given ranges from 2.5 to 200 mg/kg body weight/day. Body weight of fed animals was measured at the beginning of each week and doses for the entire week were calculated using this weight and were expressed in terms of the active moiety of the compound. Control mice receive vehicle only. […]
# Measurements: The plasma was isolated by centrifugation and the concentration of glucose was measured enzymatically on an Abbott V. P. Analyzer and the plasma concentration of insulin was determined by radioimmunoassay (Heding, 1972)
# Analysis of variance followed by Dunnett's Comparison Test (one-tailed) was used to estimate the significant difference between the plasma glucose values from the control group and the individual compound treated groups (CMS SAS Release 5.18). A compound will be considered active if the difference has a p<0.05.
# [2] = system: hepatocytes isolated and cultured from obese Zucker (fa/fa) rats; assay: Inhibition of glucose output from hepatocytes isolated and cultured from obese Zucker (fa/fa) rats; type: cell-based, rat; settings: inhibition of glucose output compared to glucagon stimulated cells
# Procedure: Inhibition of Glucose Output from Hepatocytes Isolated and Cultured from Obese Zucker (fa/fa) Rats and Their Lean Controls
# Culturing of Hepatocytes: Isolated hepatocytes were plated on 12 well rat-tail collagen coated plates at a cell density of 5×10(5) cells/ml (approximately 1 ml of cell suspension per well). Following a one hour attachment period in which plates were incubated in a CO2 incubator at 37 deg C. (95% O2, 5% CO2), the supernatant containing unattached hepatocytes was removed and replaced with fresh media (1 ml/well) containing 1 μM dexamethasone and 100 pM insulin. Cells were maintained at 37 deg C. for 48 hours in a 95% O2, 5% CO2 environment. At the end of the first 24 hours, the media was aspirated off of the wells and replaced with fresh media containing the same concentrations of dexamethasone and insulin as described earlier. Treatment with Drugs and Assessment of Glucose Output: Drugs were routinely added with fresh media 24 hours after the initial attachment period. Eighteen hours later, media was aspirated and 500 μl of fresh Hank's buffer, Buffer D (glucose-free) supplemented with hormones, gluconeogenic substrates and drug(s) was added to each well and incubated for 4 hours. At the end of the 4 hour incubation, media from each well was removed and assayed for glucose content using the hexokinase/glucose-6-phosphate dehydrogenase coupled assay on the Boehringer Mannheim model 911 auto analyzer. Glucose concentration was expressed as μg/ml. Three of the plates from each treated group were frozen for subsequent determination of protein content. Two plates from each treatment group were used to assess the cytotoxicity of drug(s) and other agents as determined by the MTT (tetrazolium) dye reduction method (see below).
# Protein test procedure: Three plates with no insulin treatment and three plates with 10^−8 M insulin treatment were used for protein determination. After supernatant has been removed for determination of glucose output the plates were frozen and stored at −20 deg C. until ready to assay for protein content. Prior to determination of protein the plates were defrosted at room temperature for 15 minutes. An aliquot of 1 ml 0.1 N NaOH was added to each well. Plates were incubated at 4 deg C. overnight. Solutions for measurement of protein content were mixed by pipetting the NaOH solution up and down several time with a 1 ml pipette and then transferring to a small polyethylene tube. Protein determination was based on that of the Pierce BCA protein assay protocol (Pierce cat. no. 23223). A set of protein standards (0.2, 0.4, 0.6, 0.8, and 1 mg/ml BSA) was prepared by serial dilution of 1 mg/ml bovine serum albumin with 0.1 N NaOH, and 40 μl of each standard, or control blank was pipetted into a 96-well plate in duplicate. Each unknown protein sample (40 μl) was tested in triplicate. An aliquot of 200 μl of BCA protein assay reagent (consisting of 50 parts Reagent A with 1 part Reagent B) was added to each well. Samples were mixed with a Titertek pipette. The microtiter plate was covered with sealing tape and incubated at room temperature for 1 hour. After incubation, the sealing tape was removed and absorbance measured on a plate reader (Uvmax kinetic microplate reader, Molecular Devices) at 570 nm. A standard curve was prepared by plotting the blank-corrected absorbance against known protein concentrations, and protein concentrations were then determined for each unknown.
# Measurements and Calculations: Glucose output was calculated as μg glucose/mg protein/hour, and inhibition of glucose output was calculated as percent inhibition of glucose output when compared to glucagon stimulated cells. Cytotoxicity was determined using the MTT dye reduction assay and data were expressed as percent inhibition of MTT dye reduction compared to control cells. […]
# diabetic ob/ob mice [3] = settings: reference compound, 20 mg/kg/day; cited from earlier work
Molecule,melting point,"IC50 ([2]; Rattus norvegicus, Hepatocyte)",other results
"O=S(=O)(Nc1ccc2c(OCc3ccc(-c4ccccc4)cc3F)cccc2c1)C(F)(F)F [Example 4, C,C,C-Trifluoro-N-[5-(3-fluoro-biphenyl-4-ylmethoxy)-naphthalen-2-yl]-methanesulfonamide]",123 to 125 °C,–,REDUCTION IN PLASMA GLUCOSE Day 1 (6 hr) p.o. (diabetic ob/ob mice [1]; 10 mg/kg): −28% (10 mg/kg); REDUCTION IN PLASMA GLUCOSE Day 3 (6 hr) p.o. (diabetic ob/ob mice [1]; 10 mg/kg): −37% (10 mg/kg)
"O=S(=O)(Nc1ccc2c(OCc3ccc(-c4ccc(C(F)(F)F)cc4)cc3F)cccc2c1)C(F)(F)F [Example 5, C,C,C-Trifluoro-N-[5-(3-fluoro-4′-trifluoromethyl-biphenyl-4-ylmethoxy)-naphthalen-2-yl]-methanesulfonamide]",98 to 100 °C,6.3 µM,–
"O=S(=O)(Nc1ccc2c(OCc3cccc(OCc4ccc(-c5ccc6ccccc6c5)cc4)c3)cccc2c1)C(F)(F)F [Example 14, N-[5-(4-naphthalen-2-yl-benzyloxy-3-ylmethoxy)-naphthalen-2-yl]-C,C,C-trifluoro-methanesulfonamide]",–,–,IC50 [2]: 10.4 µM
"O=S(=O)(Nc1ccc2c(OCc3ccc(-c4cccc(Cl)c4)cc3)cccc2c1)C(F)(F)F [Example 25, N-[5-(3′-Chloro-biphenyl-4-ylmethoxy)-naphthalen-2-yl]-C,C,C-trifluoromethanesulfonamide]",170 to 171 °C,–,REDUCTION IN PLASMA GLUCOSE Day 1 (6 hr) p.o. (diabetic ob/ob mice [1]; 10 mg/kg): −22% (10 mg/kg); REDUCTION IN PLASMA GLUCOSE Day 3 (6 hr) p.o. (diabetic ob/ob mice [1]; 10 mg/kg): −24% (10 mg/kg)
O=S(=O)(Nc1ccc2c(OCc3cccc(-c4ccccc4)c3)cccc2c1)C(F)(F)F [Example 27],–,–,IC50 [2]: 7 µM; REDUCTION IN PLASMA GLUCOSE Day 3 (6 hr) p.o. (diabetic ob/ob mice [1]; 10 mg/kg): −31% (10 mg/kg)
"O=S(=O)(Nc1ccc2c(OCc3ccc(-c4ccc(Cl)c(Cl)c4)cc3Cl)cccc2c1)C(F)(F)F [Example 30, C,C,C-Trifluoro-N-[5-(3,3′,4′-trichloro-biphenyl-4-ylmethoxy)-naphthalen-2-yl]-methanesulfonamide]",169 to 170 °C,3.1 µM,REDUCTION IN PLASMA GLUCOSE Day 1 (6 hr) p.o. (diabetic ob/ob mice [1]; 25 mg/kg): −6% (25 mg/kg); REDUCTION IN PLASMA GLUCOSE Day 3 (6 hr) p.o. (diabetic ob/ob mice [1]; 25 mg/kg): −11% (25 mg/kg)
"O=S(=O)(Nc1ccc2c(OCc3csc(-c4ccc(F)cc4F)n3)cccc2c1)C(F)(F)F [Example 46, N-{5-[2-(2,4-Difluoro-phenyl)-thiazol-4-ylmethoxy]-naphthalen-2-yl}-C,C,C-trifluoro-methanesulfonamide]",191 to 192 °C,2.8 µM,–
"O=S(=O)(Nc1ccc2c(OCc3csc(-c4ccc(C(F)(F)F)cn4)n3)cccc2c1)C(F)(F)F [Example 52, C,C,C-Trifluoro-N-{5-[2-(5-trifluoromethyl-pyridin-2-yl)-thiazol-4-yl-methoxy]naphthalen-2-yl}-methanesulfonamide]",197 to 198 °C,12 µM,–
"O=S(=O)(Nc1ccc2c(OCc3csc(-c4ccc(C(F)(F)F)cc4)n3)cccc2c1)C(F)(F)F [Example 57, N-{5-[2-(4-trufluoromethyl-phenyl)-thiazol-4-ylmethoxy]-naphthalen-2-yl}-C,C,C-trifluoro-methanesulfonamide]",–,–,IC50 [2]: 1.5 µM; REDUCTION IN PLASMA GLUCOSE Day 3 (6 hr) p.o. (diabetic ob/ob mice [1]; 10 mg/kg): −33% (10 mg/kg)
Cc1oc(-c2ccc(C(F)(F)F)cc2)nc1COc1cccc2cc(NS(=O)(=O)C(F)(F)F)ccc12 [Example 81],–,–,REDUCTION IN PLASMA GLUCOSE Day 1 (6 hr) p.o. (diabetic ob/ob mice [1]; 5 mg/kg): −28% (5 mg/kg); REDUCTION IN PLASMA GLUCOSE Day 3 (6 hr) p.o. (diabetic ob/ob mice [1]; 5 mg/kg): −33% (5 mg/kg)
"O=S(=O)(Nc1ccc2c(OCc3ccc4ccccc4c3)cccc2c1)C(F)(F)F [Example 83, N-[5-(Naphthalen-2-ylmethoxy)-naphthalen-2-yl]-C,C,C-trifluoro-methanesulfonamide]",140 to 142 °C,–,–
sodium metavanadate,–,–,lowering in plasma glucose (diabetic ob/ob mice [3]): significant lowering in plasma glucose

# More lines, main results first:
melting point,Molecule,"IC50 ([2]; Rattus norvegicus, Hepatocyte)",other results
176 to 178 °C,"O=S(=O)(Nc1ccc2c(OCc3ccc(-c4ccc(Cl)cc4)cc3Cl)cccc2c1)C(F)(F)F [Example 31, N-[5-(3,4′-Dichloro-biphenyl-4-ylmethoxy)-naphthalen-2-yl]-C,C,C-trifluoro-methanesulfonamide]",2.6 µM,REDUCTION IN PLASMA GLUCOSE Day 1 (6 hr) p.o. (diabetic ob/ob mice [1]; 5 mg/kg): −23% (5 mg/kg); REDUCTION IN PLASMA GLUCOSE Day 3 (6 hr) p.o. (diabetic ob/ob mice [1]; 5 mg/kg): −22% (5 mg/kg)
151 to 152 °C,"COc1ccc(-c2nc(COc3cccc4cc(NS(=O)(=O)C(F)(F)F)ccc34)cs2)cc1 [Example 53, C,C,C-Trifluoro-N-{5-[2-(4-methoxy-phenyl)-thiazol-4-ylmethoxy]-naphthalen-2-yl}-methanesulfonamide]",9.5 µM,–
178 to 180 °C,"Cc1oc(-c2ccc(F)cc2)nc1COc1cccc2cc(NS(=O)(=O)C(F)(F)F)ccc12 [Example 82, N-{5-[5-methyl-2-(4-fluoro-phenyl)-oxazol-4-ylmethoxy]naphthalen-2-yl}C,C,C-trifluoromethanesulfonamide]",–,–
198 to 200 °C,"O=S(=O)(Nc1ccc2c(OCc3coc(-c4ccc(Cl)cc4)n3)cccc2c1)C(F)(F)F [Example 84, N-{5-[2-(4-Chloro-phenyl)-oxazol-4-ylmethoxy]naphthalen-2-yl}C,C,C-trifluoromethanesulfonamide]",–,–
165 to 167 °C,"CC(C)(C)c1ccc(-c2nc(COc3cccc4cc(NS(=O)(=O)C(F)(F)F)ccc34)co2)cc1 [Example 85, N-{5-[2-(4-tert-Butyl-phenyl)-oxazol-4-ylmethoxy]naphthalen-2-yl}C,C,C-trifluoromethanesulfonamide]",–,–
205 to 207 °C,"O=S(=O)(Nc1ccc2c(OCc3coc(-c4ccc(Br)cc4)n3)cccc2c1)C(F)(F)F [Example 86, N-{5-[2-(4-Bromo-phenyl)-oxazol-4-ylmethoxy]naphthalen-2-yl}C,C,C-trifluoromethanesulfonamide]",–,–
205 to 207 °C,"O=S(=O)(Nc1ccc2c(OCc3coc(-c4ccc(C(F)(F)F)cc4)n3)cccc2c1)C(F)(F)F [Example 87, N-{5-[2-(4-trifluoromethyl-phenyl)-oxazol-4-ylmethoxy]naphthalen-2-yl}C,C,C-trifluoromethanesulfonamide]",–,–
127 to 130 °C,"Cc1ccccc1-c1nc(COc2cccc3cc(NS(=O)(=O)C(F)(F)F)ccc23)co1 [Example 88, N-[5-[2-o-tolyl-oxazol-4-ylmethoxy)naphthalen-2-yl]C,C,C-trifluoromethanesulfonamide]",–,–
